# Test results from ChEMBL document CHEMBL1140126, “Optimizing natural products by biosynthetic engineering: discovery of nonquinone Hsp90 inhibitors” (J Med Chem, 2008).
# Legend:
# [1] = Toxicity in NMRI nu/nu mouse assessed as maximum tolerated dose; format: organism-based; conditions: in vivo
# [2] = Antitumor activity against human MAXF401 cells xenografted in nude mouse assessed as inhibition of tumor growth at 50 mg/kg/day, ip administered alternately for 5 days with 3 days intervals assessed on day 28; format: functional; conditions: route intraperitoneal
# [3] = Antitumor activity against human MAXF401 cells xenografted in nude mouse assessed as inhibition of tumor growth at 42.5 mg/kg/day, ip administered alternately for 5 days with 3 days intervals assessed on day 21; format: functional; conditions: route intraperitoneal
# [4] = Solubility at room temperature after 6 hrs by HPLC; format: physicochemical
# [5] = system: Mus musculus; experiment: Toxicity in NMRI nu/nu mouse assessed as body weight loss at 250 mg/kg/day for 5 days; format: organism-based; conditions: in vivo, 120 h
# [6] = Antitumor activity against human MAXF401 cells xenografted in nude mouse assessed as inhibition of tumor growth at 85 mg/kg/day, ip administered alternately for 5 days with 3 days intervals assessed on day 35; format: functional; conditions: route intraperitoneal
# [7] = system: Mus musculus; experiment: Toxicity in nude mouse xenografted with human MAXF401 cells assessed as median body weight loss on day 21 at 50 mg/kg/day, ip; format: organism-based; set-up: route intraperitoneal; conditions: in vivo
# [8] = system: Mus musculus; experiment: Toxicity in nude mouse xenografted with human MAXF401 cells assessed as median body weight loss at 85 mg/kg/day, ip; format: organism-based; set-up: route intraperitoneal; conditions: in vivo
# [9] = Binding affinity to yeast HSP90; set-up: species or system Saccharomyces cerevisiae
structure (smiles),measurement,setting,value
CO[C@H]1C[C@H](C)Cc2cc(O)cc(c2)NC(=O)/C(C)=C/CC[C@H](C)[C@@H](OC(N)=O)/C(C)=C/[C@H](C)[C@H]1O,MTD,[1],≥ 250 mg/kg
same,T/C,[2],35.6%
same,T/C,[3],53.9%
same,solubility at 6 h,[4],> 200 µM
same,Activity,[5],3.8%
same,T/C,[6],45.3%
same,Activity,[7],4.4%
same,Activity,[8],3.2%
CO[C@H]1[C@@H](OC)C[C@H](C)[C@@H](OC)C2=CC(=O)C=C(NC(=O)/C(C)=C/C=C\[C@H](C)[C@@H](OC(N)=O)/C(C)=C/[C@@H]1C)C2=O [MACBECIN],solubility at 6 h,[4],81 µM
CO[C@H]1C[C@H](C)[C@@H](O)c2cc(O)cc(c2)NC(=O)/C(C)=C/CC[C@H](C)[C@@H](OC(N)=O)/C(C)=C/[C@H](C)[C@H]1O,Kd,[9],6 nM
C=CCNC1=C2C[C@@H](C)C[C@H](OC)[C@H](O)[C@@H](C)/C=C(\C)[C@H](OC(N)=O)[C@@H](OC)/C=C\C=C(/C)C(=O)NC(=CC1=O)C2=O [TANESPIMYCIN],MTD,[1],50 mg/kg
